# Columns and labels:
# FEM1B [1] = target: T1, FEM1B (Homo sapiens, UniProt Q9UK73); assay: Gel-based ABPP of EN106 against FEM1B and site identification; assay type: binding; conditions: C186
# Source text: FIGS. 12A-12B. […] FIG. 12A: Gel-based ABPP of EN106 against FEM1B. FIG. 12B: EN106 targets C186 in FEM1B. C186 is critical for substrate recognition of FEM1B. Sequence shown is: […] (residues 183-205 of SEQ ID NO:1).
# FEM1B [2] = target: T1, FEM1B; assay: EN106-alkyne pulldown and isoTOP-ABPP in HEK293T cells; assay type: cell-based; set-up: endogenous in cells; host or cells: HEK293T; conditions: EN106 10 μM 2 h (isoTOP-ABPP), EN106-alkyne pulldown
# Method: FIGS. 14A-14C. […] FIG. 14A: Structures of EN106 and EN106-alkyne (NJH-2-030). FIG. 14B: EN106-alkyne pulldown. See Example 4 for experimental procedure. FIG. 14C: HEK293T cells were treated with vehicle or EN106 (10 μM) for 2 h and cell lysates were subjected to the isoTOP-ABPP protocol described in Example 4.
# EN106-alkyne pulldown protocol. HEK293T cells were treated with DMSO or 10 μM NJH-2-030 in situ for 8 h. Cells were harvested, lysed via sonication and normalized to 2.0 mg/mL. Following normalization, 100 μL of each lysate sample was removed for Western blot analysis of input, and 500 μL of each lysate sample was incubated for 1 h at room temperature with 10 μL of 5 mM biotin picolyl azide (in water) (Sigma Aldrich 900912), 10 μL of 50 mM TCEP (in water), 30 μL of TBTA ligand (0.9 mg/mL in DMSO:t-butanol=1:4), and 10 μL of 50 mM Copper (II) Sulfate (12.5 mg/mL in water). Proteins were precipitated, washed 3×1 mL with cold MeOH, resolubilized in 1 mL of 1.2% SDS/PBS (w/v), heated for 5 min at 90° C., and centrifuged to remove any insoluble components. […] Proteins in each sample were then analyzed by Western blotting to look for enriched FEM1B versus non-enriched GAPDH.
# IsoTOP-ABPP Chemoproteomic Experiment. […] Cells were lysed by probe sonication in PBS and protein concentrations were measured by BCA assay. […]
# [3] = system: GFP-Fnip1 degron reporter; assay: GFP-Fnip1 degron reporter (GFP/mCherry) by flow cytometry; assay type: cell-based; conditions: HEK293T cells, reporter +/- Fem1b, 20 μM, 8 hours
# Method: HEK293T cells were transfected 24 hours before flow cytometery with the GFP-Fnip1 degron reporter+/−Fem1b.
# FNIP1 variants were expressed in cells and tested for interaction with ^FLAGFEM1B by co-immunoprecipitation, and for degradation by measuring their abundance in the presence or absence of FEM1B. […] FEM1B variants were immunoprecipitated and bound FNIP1 and FLCN were detected by Western blotting. […] The FNIP1 degron was fused to GFP (GFP^degron) and expressed from the same plasmid as an IRES controlled mCherry. mCherry provides normalization for GFP fluorescence in each cell. […] Levels of GFP^degron and mCherry were determined by FACS, and their ratio is depicted for presence or absence of FEM1B variants. […] Cells were transfected with the GFP^degron/mCherry reporter, and analyzed for GFP and mCherry fluorescence by FACS. […] A TAMRA-labeled FNIP1 degron peptide was incubated with purified FEMIB or the control CRL1 adaptor FBXL17, and binding was measured by fluorescence polarization of the peptide. […] The TAMRA-labeled FNIP1 degron was incubated with recombinant CUL2^FEM1B (unmodified or NEDD8-modified), E1, ubiquitin, ATP and the E2 enzymes UBE2D3 and/or UBE2R1. Ubiquitylation was monitored by gel electrophoresis and fluorescence detection.
# FEM1B-FNIP1 = FEM1B-FNIP1 (Homo sapiens, UniProt Q9UK73); assay: Fluorescence polarization between FEM1B and FNIP1 (covalent ligand screen); assay type: binding; conditions: DMSO = 100, FP between FEM1B and FNIP1
# Chain of FEM1B-FNIP1 (Q9UK73 whole entry): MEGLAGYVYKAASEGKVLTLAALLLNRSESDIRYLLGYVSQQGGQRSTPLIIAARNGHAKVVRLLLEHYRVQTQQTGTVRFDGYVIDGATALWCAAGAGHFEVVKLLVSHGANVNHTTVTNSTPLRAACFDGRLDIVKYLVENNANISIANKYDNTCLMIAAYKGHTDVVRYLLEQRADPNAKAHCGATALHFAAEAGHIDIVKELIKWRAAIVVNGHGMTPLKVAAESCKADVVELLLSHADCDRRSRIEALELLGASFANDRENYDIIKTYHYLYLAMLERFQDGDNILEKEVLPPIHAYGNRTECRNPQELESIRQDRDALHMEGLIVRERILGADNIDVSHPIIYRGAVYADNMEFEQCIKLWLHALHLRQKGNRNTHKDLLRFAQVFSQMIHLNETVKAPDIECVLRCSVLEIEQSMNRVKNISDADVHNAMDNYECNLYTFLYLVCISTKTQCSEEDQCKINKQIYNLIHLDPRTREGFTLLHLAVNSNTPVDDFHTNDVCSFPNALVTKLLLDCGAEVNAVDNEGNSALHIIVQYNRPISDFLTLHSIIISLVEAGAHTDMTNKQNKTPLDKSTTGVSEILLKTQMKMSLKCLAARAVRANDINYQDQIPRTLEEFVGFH
# Source text: FIG. 11. Fluorescence polarization screen to identify functional FEM1B-FNIP1-targeting covalent ligands.
# FEM1B binds a conserved central degron in FNIP1. Deletion analysis of FNIP1 identifies a stretch of 20 amino acids that is required for its binding to FEM1B and its proteasomal degradation. FNIP1 variants were expressed in cells and tested for interaction with ^FLAGFEM1B by co-immunoprecipitation, and for degradation by measuring their abundance in the presence or absence of FEM1B. The FNIP1 degron is required for FEM1B binding and proteasomal degradation. […] FEM1B variants were immunoprecipitated and bound FNIP1 and FLCN were detected by Western blotting. The FNIP1 degron is sufficient to mediate FEM1B-dependent degradation. The FNIP1 degron was fused to GFP (GFP^degron) and expressed from the same plasmid as an IRES controlled mCherry. mCherry provides normalization for GFP fluorescence in each cell. […] Levels of GFP^degron and mCherry were determined by FACS, and their ratio is depicted for presence or absence of FEM1B variants. Deletion of FEM1B prevents FNIP1-degron dependent degradation. The FEM1B locus was deleted in 293T cells using CRISPR/Cas9. Cells were transfected with the GFP^degron/mCherry reporter, and analyzed for GFP and mCherry fluorescence by FACS. FEM1B directly binds the FNIP1 degron in vitro. A TAMRA-labeled FNIP1 degron peptide was incubated with purified FEMIB or the control CRL1 adaptor FBXL17, and binding was measured by fluorescence polarization of the peptide. The FNIP1 degron is sufficient to mediate CUL2^FEM1B-dependent ubiquitylation. The TAMRA-labeled FNIP1 degron was incubated with recombinant CUL2^FEM1B (unmodified or NEDD8-modified), E1, ubiquitin, ATP and the E2 enzymes UBE2D3 and/or UBE2R1. Ubiquitylation was monitored by gel electrophoresis and fluorescence detection.
# T1 sequence (Q9UK73 whole entry, the tested form may be a part): as the sequence (Q9UK73 whole entry) above
smiles,measurement,setting,value
"N#CCCN(C(=O)CCl)c1ccc2c(c1)OCCO2 [EN106, 2-chloro-N-(2-cyanoethyl)-N-(2,3-dihydrobenzo[b][1,4]dioxin-6-yl)acetamide]",covalent targeting of FEM1B cysteine,FEM1B [1],covalently targets C186 on FEM1B
same,FEM1B engagement in cells,FEM1B [2],engages FEM1B in cells
same,inhibition of FEM1B in cells / FNIP1 stabilization,[3],inhibits endogenous and overexpressed FEM1B in cells and stabilizes FNIP1
same,remaining activity at 5 µM,"FEM1B-FNIP1; compound at 5 μM, read-out: Normalized FP 5 μM",50.6%
same,activity at 50 µM,"FEM1B-FNIP1; compound at 50 μM, read-out: Normalized FP 50 μM",4.2%
